The target in assay [1] is Sodium-dependent serotonin transporter (Homo sapiens, UniProt P31645). Format: cell-based, HEK293.
Assay [2] concerns the target Sodium-dependent noradrenaline transporter (Homo sapiens, UniProt P23975). The experiment in a line: Inhibition of [3H]norepinephrine uptake at human NET expressed in HEK293 cells preincubated for 10 mins prior to substrate addition measured after 4 mins by […]. Format: cell-based.
Assay [3] concerns the target Sodium-dependent dopamine transporter (Homo sapiens, UniProt Q01959). The assay is classed as cell-based, HEK293.

Chain of Sodium-dependent dopamine transporter (Q01959 whole entry): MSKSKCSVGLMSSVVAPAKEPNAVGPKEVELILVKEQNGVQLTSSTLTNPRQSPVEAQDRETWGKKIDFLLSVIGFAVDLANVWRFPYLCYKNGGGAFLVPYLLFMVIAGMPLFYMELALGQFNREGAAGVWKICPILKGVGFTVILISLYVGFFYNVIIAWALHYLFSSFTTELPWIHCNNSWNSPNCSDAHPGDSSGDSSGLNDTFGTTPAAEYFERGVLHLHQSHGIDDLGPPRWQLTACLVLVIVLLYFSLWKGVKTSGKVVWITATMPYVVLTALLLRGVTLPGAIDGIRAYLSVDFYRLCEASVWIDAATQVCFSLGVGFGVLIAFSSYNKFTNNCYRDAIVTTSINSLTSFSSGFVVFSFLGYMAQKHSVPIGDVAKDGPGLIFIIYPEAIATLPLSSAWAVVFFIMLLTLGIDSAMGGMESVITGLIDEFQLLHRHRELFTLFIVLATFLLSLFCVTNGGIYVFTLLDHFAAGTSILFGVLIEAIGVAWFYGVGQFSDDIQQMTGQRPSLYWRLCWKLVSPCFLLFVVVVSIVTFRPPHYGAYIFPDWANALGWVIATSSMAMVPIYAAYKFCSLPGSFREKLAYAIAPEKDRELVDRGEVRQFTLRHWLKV
Chain of Sodium-dependent serotonin transporter (P31645 whole entry): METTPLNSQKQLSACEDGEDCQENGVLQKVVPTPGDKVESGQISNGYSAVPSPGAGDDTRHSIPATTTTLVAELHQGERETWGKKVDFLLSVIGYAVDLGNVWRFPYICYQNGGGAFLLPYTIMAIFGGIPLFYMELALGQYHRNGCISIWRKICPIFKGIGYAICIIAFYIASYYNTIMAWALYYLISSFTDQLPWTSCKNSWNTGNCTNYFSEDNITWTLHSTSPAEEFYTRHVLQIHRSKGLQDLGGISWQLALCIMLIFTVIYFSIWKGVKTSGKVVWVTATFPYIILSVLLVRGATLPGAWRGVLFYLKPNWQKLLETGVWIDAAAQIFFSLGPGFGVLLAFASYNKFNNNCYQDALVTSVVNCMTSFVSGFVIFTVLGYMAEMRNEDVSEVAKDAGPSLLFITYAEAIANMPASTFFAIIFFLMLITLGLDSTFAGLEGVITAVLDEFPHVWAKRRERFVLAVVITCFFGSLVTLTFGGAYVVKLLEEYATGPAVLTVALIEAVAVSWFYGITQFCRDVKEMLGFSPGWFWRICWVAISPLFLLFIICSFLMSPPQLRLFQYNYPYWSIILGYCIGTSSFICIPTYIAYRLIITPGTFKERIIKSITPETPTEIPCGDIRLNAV
Chain of Sodium-dependent noradrenaline transporter (P23975 whole entry): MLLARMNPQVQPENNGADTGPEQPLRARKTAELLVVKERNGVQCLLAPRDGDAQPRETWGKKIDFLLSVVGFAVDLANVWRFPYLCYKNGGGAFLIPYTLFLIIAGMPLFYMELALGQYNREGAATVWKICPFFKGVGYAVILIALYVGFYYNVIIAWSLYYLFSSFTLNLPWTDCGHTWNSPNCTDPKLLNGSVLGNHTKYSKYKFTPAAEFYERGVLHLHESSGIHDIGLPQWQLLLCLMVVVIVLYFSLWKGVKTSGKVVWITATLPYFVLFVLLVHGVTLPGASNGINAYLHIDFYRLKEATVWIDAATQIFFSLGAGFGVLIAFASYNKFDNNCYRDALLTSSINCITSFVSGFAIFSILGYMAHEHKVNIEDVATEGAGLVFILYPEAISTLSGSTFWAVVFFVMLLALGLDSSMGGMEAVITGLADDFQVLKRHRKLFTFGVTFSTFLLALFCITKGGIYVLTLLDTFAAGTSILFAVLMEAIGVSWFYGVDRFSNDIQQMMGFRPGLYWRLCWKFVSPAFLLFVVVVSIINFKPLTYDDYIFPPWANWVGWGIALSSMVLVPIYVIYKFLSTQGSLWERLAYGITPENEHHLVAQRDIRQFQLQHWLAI

What is called IC50 is the point on the concentration scale where inhibition reaches its midpoint. Read a low IC50 as greater potency. Broadly, the Ki is a measure of affinity in units of concentration, obtained from inhibition or displacement. A higher Ki goes with lower affinity. On to `CN[C@@H](C)Cc1ccc2c(c1)OCO2` (single isomer, unassigned; (+)) [MIDOMAFETAMINE], for which the half-maximal inhibitory concentration (IC50) in assay [1] is 2.75 µM; in assay [2], 2 µM; in assay [3], 2.4 µM. This molecule also displayed a Ki in assay [3] of 0.897 µM.
Turning to `CC(N)Cc1ccc2c(c1)OCO2` (single isomer, unassigned; (-)) [TENAMFETAMINE], the IC50 was 6.76 µM in assay [1], 3.16 µM in assay [2] and 6.17 µM in assay [3]. The Ki in assay [1] stood at 2.31 µM; in assay [2], 0.704 µM; in assay [3], 2.42 µM.
In assay [3], `CN(C)CCC=C1c2ccccc2CCc2ccccc21` [AMITRIPTYLINE] gave a half-maximal inhibitory concentration (IC50) of 12.6 µM and a Ki of 6.2 µM.

The values above are taken from ChEMBL document CHEMBL2390840, “An analysis of the synthetic tryptamines AMT and 5-MeO-DALT: emerging 'Novel Psychoactive Drugs'” (Bioorg Med Chem Lett, 2013).
